Reference: ChEMBL document CHEMBL5625183, “Discovery of a novel dual-target inhibitor of CDK12 and PARP1 that induces synthetic lethality for treatment of triple-negative breast cancer” (Eur J Med Chem, 2023)
Active and inactive are the calls of the source. The rule behind the calls is not given here.

Assays:
[1] = test system: MDA-MB-231; assay: Antitumor activity against human MDA-MB-231 cells xenografted in ip dosed BALB/c mouse assessed as reduction in tumor growth administered once daily for 16 days; assay type: functional, organism-based; settings: dose 20-80 mg/kg, time 16.0 day
[2] = test system: MDA-MB-468; assay: Inhibition of cell migration in human MDA-MB-468 cells assessed as upregulation of E-cadherin level by measuring fluorescence intensity at 10 uM incubated for 24 hrs by confocal microscopic analysis; assay type: functional, cell-based
[3] = Half life in Sprague-Dawley rat 1 mg/kg, iv measured upto 24 hrs by LC-MS/MS analysis; assay type: ADME, organism-based; settings: in vivo
[4] = test system: MDA-MB-436; assay: Induction of cell cycle arrest in human MDA-MB-436 cells assessed as accumulation of cells at G1 phase at 5 uM measured after 24 hrs by PI staining based cytometry analysis (reference value: 72.04%); assay type: functional
[5] = molecular target: T1, Cyclin-dependent kinase 5 (Homo sapiens, UniProt Q00535); assay: Inhibition of CDK5 (unknown origin) at 1 uM relative to control
Target sequence in this assay (Q00535 whole entry, looked up): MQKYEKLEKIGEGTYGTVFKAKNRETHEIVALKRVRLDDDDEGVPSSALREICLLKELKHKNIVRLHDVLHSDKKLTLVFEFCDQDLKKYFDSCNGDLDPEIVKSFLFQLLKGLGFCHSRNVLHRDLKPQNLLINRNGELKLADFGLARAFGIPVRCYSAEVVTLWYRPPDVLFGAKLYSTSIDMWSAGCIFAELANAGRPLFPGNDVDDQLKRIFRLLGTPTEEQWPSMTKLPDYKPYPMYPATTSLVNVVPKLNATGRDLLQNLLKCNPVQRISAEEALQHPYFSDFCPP

[6] = molecular target: T2, Cyclin-dependent kinase 12 (Homo sapiens, UniProt Q9NYV4); assay: Inhibition of CDK12 in human MDA-MB-436 cells assessed as effect on Pol II CTD at ser5 residue phosphorylation incubated for 24 hrs; assay type: cell-based; settings: dose 5-20 µM
T2 sequence (Q9NYV4 whole entry, looked up): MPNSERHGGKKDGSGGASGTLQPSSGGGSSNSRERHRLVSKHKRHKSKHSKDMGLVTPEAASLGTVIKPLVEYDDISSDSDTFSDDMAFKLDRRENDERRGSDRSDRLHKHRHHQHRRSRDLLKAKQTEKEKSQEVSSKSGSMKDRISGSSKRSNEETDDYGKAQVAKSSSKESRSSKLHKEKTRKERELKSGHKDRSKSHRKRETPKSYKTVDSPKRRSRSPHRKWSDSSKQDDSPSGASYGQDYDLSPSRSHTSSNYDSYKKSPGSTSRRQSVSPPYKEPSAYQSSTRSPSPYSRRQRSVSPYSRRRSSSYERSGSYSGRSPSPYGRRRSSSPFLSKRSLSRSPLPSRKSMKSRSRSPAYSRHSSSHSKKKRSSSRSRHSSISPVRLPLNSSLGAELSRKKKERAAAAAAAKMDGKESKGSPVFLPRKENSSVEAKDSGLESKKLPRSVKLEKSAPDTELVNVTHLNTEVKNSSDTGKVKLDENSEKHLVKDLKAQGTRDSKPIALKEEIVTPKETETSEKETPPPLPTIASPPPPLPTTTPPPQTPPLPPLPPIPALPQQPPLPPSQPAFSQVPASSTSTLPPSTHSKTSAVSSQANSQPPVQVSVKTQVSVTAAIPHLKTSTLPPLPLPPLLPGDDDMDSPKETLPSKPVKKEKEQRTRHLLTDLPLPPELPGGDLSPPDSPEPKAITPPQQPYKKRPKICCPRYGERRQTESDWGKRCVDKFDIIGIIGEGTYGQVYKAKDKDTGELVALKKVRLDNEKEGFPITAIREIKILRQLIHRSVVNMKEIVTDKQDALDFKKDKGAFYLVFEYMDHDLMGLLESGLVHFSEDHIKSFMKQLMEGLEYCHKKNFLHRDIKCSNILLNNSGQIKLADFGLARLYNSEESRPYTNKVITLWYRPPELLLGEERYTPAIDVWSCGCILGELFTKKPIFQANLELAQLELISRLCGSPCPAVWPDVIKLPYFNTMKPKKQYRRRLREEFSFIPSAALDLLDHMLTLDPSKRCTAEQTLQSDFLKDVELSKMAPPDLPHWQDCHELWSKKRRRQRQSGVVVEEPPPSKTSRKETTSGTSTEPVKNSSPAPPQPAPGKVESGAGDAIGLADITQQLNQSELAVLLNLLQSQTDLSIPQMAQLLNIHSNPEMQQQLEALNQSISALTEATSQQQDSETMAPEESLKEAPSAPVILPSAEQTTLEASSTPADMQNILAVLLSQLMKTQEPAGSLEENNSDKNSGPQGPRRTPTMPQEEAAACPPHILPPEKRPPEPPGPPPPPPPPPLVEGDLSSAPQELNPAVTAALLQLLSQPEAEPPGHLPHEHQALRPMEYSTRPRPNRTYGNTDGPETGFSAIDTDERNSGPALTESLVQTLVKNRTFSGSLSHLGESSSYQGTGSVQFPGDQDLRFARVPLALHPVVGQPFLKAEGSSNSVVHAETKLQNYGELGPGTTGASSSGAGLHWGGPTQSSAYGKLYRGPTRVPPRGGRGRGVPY

[7] = test system: MDA-MB-436; assay: Antiproliferative activity against human MDA-MB-436 cells transfected with wild type PARP1 and CDK12 M816A mutant incubated for 24 hrs by MTT assay; assay type: functional, cell-based
[8] = molecular target: Poly [ADP-ribose] polymerase 1 (Homo sapiens, UniProt P09874); assay: Binding affinity to PARP1 in human MDA-MB-436 cells assessed as increase in protein thermal stabilization at 10 uM incubated for 6 hrs by CETSA based Western blot analysis; assay type: cell-based
Poly [ADP-ribose] polymerase 1, sequence (P09874 whole entry): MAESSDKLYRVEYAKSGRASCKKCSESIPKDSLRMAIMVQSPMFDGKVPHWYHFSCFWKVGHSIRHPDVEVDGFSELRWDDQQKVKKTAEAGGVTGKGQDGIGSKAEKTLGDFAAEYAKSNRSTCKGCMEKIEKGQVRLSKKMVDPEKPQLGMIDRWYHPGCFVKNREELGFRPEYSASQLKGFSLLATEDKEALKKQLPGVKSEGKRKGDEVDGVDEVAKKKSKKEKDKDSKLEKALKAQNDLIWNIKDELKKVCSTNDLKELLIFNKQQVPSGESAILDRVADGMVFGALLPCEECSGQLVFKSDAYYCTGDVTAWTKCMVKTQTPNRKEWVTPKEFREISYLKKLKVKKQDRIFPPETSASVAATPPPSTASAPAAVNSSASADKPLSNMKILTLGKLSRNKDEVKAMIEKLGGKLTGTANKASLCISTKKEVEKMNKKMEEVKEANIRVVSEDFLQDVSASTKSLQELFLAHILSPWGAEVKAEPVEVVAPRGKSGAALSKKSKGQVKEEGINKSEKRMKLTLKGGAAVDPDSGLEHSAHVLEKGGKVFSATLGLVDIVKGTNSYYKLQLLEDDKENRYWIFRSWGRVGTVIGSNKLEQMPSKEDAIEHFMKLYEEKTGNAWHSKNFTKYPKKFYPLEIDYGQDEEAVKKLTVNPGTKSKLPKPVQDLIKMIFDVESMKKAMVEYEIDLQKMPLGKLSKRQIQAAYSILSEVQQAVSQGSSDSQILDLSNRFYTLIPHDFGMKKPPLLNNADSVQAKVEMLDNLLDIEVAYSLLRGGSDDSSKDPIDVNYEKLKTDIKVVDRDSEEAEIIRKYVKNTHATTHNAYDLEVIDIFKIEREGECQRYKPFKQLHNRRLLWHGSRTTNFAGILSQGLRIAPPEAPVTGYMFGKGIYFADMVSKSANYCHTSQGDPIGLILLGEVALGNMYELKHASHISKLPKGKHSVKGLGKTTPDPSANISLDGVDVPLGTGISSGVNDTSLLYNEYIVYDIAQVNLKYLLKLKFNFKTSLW

[9] = Metabolic stability in BALB/c mouse liver microsome assessed as half life in presence of NADPH incubated upto 60 mins by LC-MS/MS analysis; assay type: ADME; settings: liver microsomes
[10] = molecular target: Dual specificity protein kinase CLK1 (Homo sapiens) (UniProt P49759); assay: Inhibition of CLK1 (unknown origin) at 1 uM relative to control
Dual specificity protein kinase CLK1 (Homo sapiens), sequence (P49759 whole entry, looked up): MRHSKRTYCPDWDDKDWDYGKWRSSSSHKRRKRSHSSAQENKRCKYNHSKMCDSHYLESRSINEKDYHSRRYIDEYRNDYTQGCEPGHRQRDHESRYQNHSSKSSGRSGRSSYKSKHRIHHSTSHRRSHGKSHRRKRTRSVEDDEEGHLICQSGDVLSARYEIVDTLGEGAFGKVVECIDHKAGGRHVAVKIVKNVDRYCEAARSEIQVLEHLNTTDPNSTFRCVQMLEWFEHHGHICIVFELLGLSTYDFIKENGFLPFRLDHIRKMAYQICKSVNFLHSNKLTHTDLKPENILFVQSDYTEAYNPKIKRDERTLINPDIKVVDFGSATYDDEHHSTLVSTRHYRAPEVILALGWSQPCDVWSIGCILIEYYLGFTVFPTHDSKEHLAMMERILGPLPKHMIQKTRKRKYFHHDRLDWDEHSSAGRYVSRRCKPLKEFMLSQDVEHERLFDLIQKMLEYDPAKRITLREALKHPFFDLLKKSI

[11] = test system: MDA-MB-231; assay: Inhibition of cell migration in human MDA-MB-231 cells assessed as downregulation of MMP-2 level by measuring fluorescence intensity at 10 uM incubated for 24 hrs by confocal microscopic analysis; assay type: functional, cell-based
[12] = molecular target: Vascular endothelial growth factor receptor 3 (Homo sapiens) (UniProt P35916); assay: Inhibition of FLT4 (unknown origin) at 1 uM relative to control
Vascular endothelial growth factor receptor 3 (Homo sapiens), sequence (P35916 whole entry): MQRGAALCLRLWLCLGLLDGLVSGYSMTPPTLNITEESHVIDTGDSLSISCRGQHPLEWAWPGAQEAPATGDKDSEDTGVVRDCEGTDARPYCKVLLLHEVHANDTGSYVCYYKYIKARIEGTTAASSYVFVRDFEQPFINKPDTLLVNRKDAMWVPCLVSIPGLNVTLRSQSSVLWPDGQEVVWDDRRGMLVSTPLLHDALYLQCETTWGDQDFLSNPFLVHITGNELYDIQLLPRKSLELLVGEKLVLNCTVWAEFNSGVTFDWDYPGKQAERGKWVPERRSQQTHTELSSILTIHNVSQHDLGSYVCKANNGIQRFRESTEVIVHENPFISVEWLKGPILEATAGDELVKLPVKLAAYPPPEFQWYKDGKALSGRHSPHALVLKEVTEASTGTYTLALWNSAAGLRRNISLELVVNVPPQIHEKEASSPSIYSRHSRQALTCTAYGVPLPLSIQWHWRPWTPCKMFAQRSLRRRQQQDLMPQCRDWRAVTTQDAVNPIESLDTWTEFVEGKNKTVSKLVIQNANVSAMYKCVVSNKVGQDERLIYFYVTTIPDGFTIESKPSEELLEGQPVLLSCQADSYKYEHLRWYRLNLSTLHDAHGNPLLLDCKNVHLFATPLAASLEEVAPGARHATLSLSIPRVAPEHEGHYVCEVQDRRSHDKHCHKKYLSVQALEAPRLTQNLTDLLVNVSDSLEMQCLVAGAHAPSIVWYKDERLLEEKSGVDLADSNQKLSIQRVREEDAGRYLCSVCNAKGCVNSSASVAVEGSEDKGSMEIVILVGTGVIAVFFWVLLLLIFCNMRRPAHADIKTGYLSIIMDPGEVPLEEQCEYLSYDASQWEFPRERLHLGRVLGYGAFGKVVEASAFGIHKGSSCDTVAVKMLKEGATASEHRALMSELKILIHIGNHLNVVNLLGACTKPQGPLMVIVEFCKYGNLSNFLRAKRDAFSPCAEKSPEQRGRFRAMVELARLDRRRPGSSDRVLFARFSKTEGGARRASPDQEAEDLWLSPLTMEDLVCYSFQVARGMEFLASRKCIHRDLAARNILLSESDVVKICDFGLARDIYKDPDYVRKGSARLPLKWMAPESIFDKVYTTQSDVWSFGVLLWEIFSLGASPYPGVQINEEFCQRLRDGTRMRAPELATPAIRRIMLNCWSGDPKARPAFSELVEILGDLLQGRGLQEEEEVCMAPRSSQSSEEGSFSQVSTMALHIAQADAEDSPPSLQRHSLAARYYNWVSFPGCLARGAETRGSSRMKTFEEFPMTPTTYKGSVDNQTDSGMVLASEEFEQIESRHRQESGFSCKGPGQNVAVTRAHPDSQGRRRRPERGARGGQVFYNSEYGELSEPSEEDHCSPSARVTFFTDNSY

[13] = test system: MDA-MB-436; assay: Antiproliferative activity against human MDA-MB-436 cells assessed as inhibition of cell growth incubated for 24 hrs by MTT assay; assay type: functional, cell-based; settings: Homo sapiens, MDA-MB-436, 24 h
[14] = molecular target: T2, Cyclin-dependent kinase 12; assay: Inhibition of CDK12 in human MDA-MB-231 cells assessed as effect on Pol II CTD at ser7 residue phosphorylation incubated for 24 hrs; assay type: cell-based; settings: dose 5-20 µM
[15] = test system: MDA-MB-231; assay: Induction of cell cycle arrest in human MDA-MB-231 cells assessed as accumulation of cells at S phase at 10 uM measured after 24 hrs by PI staining based cytometry analysis (reference value: 23.01 %); assay type: functional
[16] = test system: MDA-MB-436; assay: Induction of cell cycle arrest in human MDA-MB-436 cells assessed as accumulation of cells at G2 phase at 20 uM measured after 24 hrs by PI staining based cytometry analysis (reference value: 2.54%); assay type: functional
[17] = test system: MDA-MB-231; assay: Induction of apoptosis in human MDA-MB-231 cells assessed as upregulation of cleaved-caspase 3 expression incubated for 24 hrs; assay type: functional, cell-based; settings: dose 5-20 µM
[18] = test system: MDA-MB-231; assay: Downregulation of Pol II CTD at ser2 residue expression in human MDA-MB-231 cells incubated for 24 hrs; assay type: functional, cell-based; settings: dose 5-20 µM
[19] = molecular target: T2, Cyclin-dependent kinase 12; assay: Binding affinity to CDK12 in human MDA-MB-231 cells assessed as increase in protein thermal stabilization at 10 uM incubated for 6 hrs by CETSA based Western blot analysis; assay type: cell-based
[20] = molecular target: T1, Cyclin-dependent kinase 5; assay: Inhibition of CDK5 (unknown origin)
Target sequence in this assay (Q00535 whole entry): as the sequence (Q00535 whole entry, looked up) above

[21] = test system: MDA-MB-468; assay: Antiproliferative activity against human MDA-MB-468 cells assessed as decrease in number of colony formation at 10 uM measured after 24 days by crystal violet staining based analysis; assay type: functional, cell-based; settings: time 24.0 day
[22] = Metabolic stability in human liver microsome assessed as intrinsic clearance in presence of NADPH incubated upto 60 mins by LC-MS/MS analysis; assay type: ADME; settings: liver microsomes, read-out: CLH
[23] = test system: MDA-MB-231; assay: Induction of […] in human MDA-MB-231 cells assessed as increase in gamma-H2AX foci formation at 10 uM incubated for 24 hrs by confocal laser scanning microscopic analysis; assay type: functional, cell-based
[24] = test system: MDA-MB-231; assay: Induction of cell cycle arrest in human MDA-MB-231 cells assessed as accumulation of cells at G1 phase at 20 uM measured after 24 hrs by PI staining based cytometry analysis (reference value: 68.55%); assay type: functional
[25] = test system: MDA-MB-436; assay: Downregulation of Pol II CTD at ser2 residue expression in human MDA-MB-436 cells incubated for 24 hrs; assay type: functional, cell-based; settings: dose 5-20 µM
[26] = test system: MDA-MB-231; assay: […] DNA repair in human MDA-MB-231 cells assessed as decrease in RAD51 level at 10 uM incubated for 24 hrs by confocal laser scanning microscopic analysis; assay type: functional, cell-based
[27] = test system: MDA-MB-231; assay: Antitumor activity against human MDA-MB-231 cells xenografted in ip dosed BALB/c mouse assessed as upregulation of E-cadherin level administered once daily for 16 days; assay type: functional, organism-based; settings: dose 20-80 mg/kg, time 16.0 day
[28] = test system: MDA-MB-436; assay: Induction of cell cycle arrest in human MDA-MB-436 cells assessed as accumulation of cells at G1 phase at 20 uM measured after 24 hrs by PI staining based cytometry analysis (reference value: 72.04%); assay type: functional
[29] = test system: MDA-MB-468; assay: Antiproliferative activity against human MDA-MB-468 cells assessed as inhibition of cell growth incubated for 24 hrs by MTT assay; assay type: functional, cell-based; settings: MDA-MB-468, 24 h
[30] = molecular target: T2, Cyclin-dependent kinase 12; assay: Inhibition of CDK12 in human MDA-MB-231 cells assessed as effect on Pol II CTD at ser5 residue phosphorylation incubated for 24 hrs; assay type: cell-based; settings: dose 5-20 µM
[31] = Toxicity in BALB/c mouse xenografted with human MDA-MB-231 cells assessed as morphological changes in lung at 20 to 80 mg/kg, ip administered once daily for 16 days by H and E staining based analysis; assay type: organism-based; settings: in vivo, 384 h, dose 20-80 mg/kg, time 16 day
[32] = molecular target: T2, Cyclin-dependent kinase 12; assay: Inhibition of CDK12 (unknown origin) at 20 uM in presence of ATP by kinase-glo plus luminescent assay relative to control
[33] = test system: MDA-MB-231; assay: Antiproliferative activity against human MDA-MB-231 cells assessed as decrease in number of colony formation at 10 uM measured after 24 days by crystal violet staining based analysis; assay type: functional, cell-based; settings: time 24.0 day
[34] = test system: MDA-MB-231; assay: Antitumor activity against human MDA-MB-231 cells xenografted in ip dosed BALB/c mouse assessed as downregulation of MMP-2 level administered once daily for 16 days; assay type: functional, organism-based; settings: dose 20-80 mg/kg, time 16.0 day
[35] = test system: MDA-MB-231; assay: Induction of cell cycle arrest in human MDA-MB-231 cells assessed as accumulation of cells at G2 phase at 10 uM measured after 24 hrs by PI staining based cytometry analysis (reference value: 8.44 %); assay type: functional
[36] = test system: MDA-MB-231; assay: Antiproliferative activity against human MDA-MB-231 cells transfected with wild type PARP1 and CDK12 M816A mutant incubated for 24 hrs by MTT assay; assay type: functional, cell-based

NC(=O)c1cccc2[nH]c(NC(=O)c3cccc(C(=O)N4CCC(Nc5ncc(I)cn5)CC4)c3)nc12
Activity [1]: Dose-Dependent Effect | inhibition [2]: Active | half-life [3]: 180 min | Activity [4]: 69.11% | inhibition [5]: > 60% | inhibition [6]: Dose-Dependent Effect | Activity [7]: Active | Activity [8]: Active | half-life [9]: 113 min | inhibition [10]: > 60% | inhibition [11]: Active | inhibition [12]: > 60% | IC50 [13]: 9 µM | inhibition [14]: Dose-Dependent Effect | Activity [15]: 17.93% | Activity [16]: 15.05% | Activity [17]: Dose-Dependent Effect | Activity [18]: Dose-Dependent Effect | Activity [19]: Active | IC50 [20]: 747 nM | Activity [21]: Active | CLint scaled [22]: 7.61 mL/min/kg | Activity [23]: Active | Activity [24]: 59.26% | Activity [25]: Dose-Dependent Effect | Activity [26]: Active | Activity [27]: Dose-Dependent Effect | Activity [28]: 63.76% | IC50 [29]: 9.7 µM | inhibition [30]: Dose-Dependent Effect | Activity [31]: Non-Toxic | inhibition [32]: Active | Activity [33]: Active | Activity [34]: Active | Activity [35]: 20.35% | Activity [36]: Active
